Experiments:
[1] = test system: mixed inoculum of Staphylococcus aureus ATCC 6538, Pseudomonas aeruginosa ATCC 9027 and Escherichia coli ATCC 8739; assay: Challenge test, bacteria, in unpreserved shampoo (Shampoo ULD); conditions: room temperature, Example 1 at 1% or its components at 0.06% sorbic acid, 0.2% benzyl alcohol, 0.37% 1,2-propanediol, 0.37% 1,4-butanediol
Description: A mixed inoculum containing approximately equal amounts of Staphylococcus aureus ATCC 6538, Pseudomonas aeruginosa ATCC 9027 and Escherichia coli ATCC 8739 was prepared according to the following procedure:
One colony of each bacteria strain was transferred from a stock culture to a tryptic soy agar plate which was incubated for 18-24 h at 37±2° C. Subsequently, some colonies of each of the thus-obtained cultures were transferred to a tryptic soy broth tube which was again incubated for 18-24 h at 37±2° C. to obtain a bacteria subculture, 200 μL of which were added to 2 mL of NaCl-peptone solution in a sterile plastic tube to obtain an inoculum containing approximately 10^9 cfu/mL of the respective bacterium. Finally, the mixed inoculum was prepared by mixing equal volumes of each inoculum.
For comparison purposes, additional 20 g samples were tested using equivalent amounts of each of the components of the preservative composition either alone or in two- or three-component combinations. Each sample was then inoculated with 200 μL of the mixed inoculum obtained in step A) and shaken vigorously to obtain a homogeneous contamination. The samples were then stored at room temperature and the bacteria count was determined in intervals of 7 days by taking 200 μL samples, mixing each of them with 1.8 mL of inactivation medium, and homogeneously plating 100 μL of the resulting mixtures on the surface of agar plates which were incubated for 2-3 days at 37±2° C. After the incubation period the colonies formed on the agar plates were counted and the results translated into cfu/mL. If necessary, serial dilutions in NaCl-peptone were prepared to cope with high bacteria counts.

[2] = test system: mixed inoculum of Candida albicans ATCC 10231 and Aspergillus niger ATCC 16404; assay: Challenge test, fungi, in unpreserved shampoo pH 5.5 (Table 2); conditions: shampoo of Table 2, pH 5.5, Example 1 at 1% or its components at 0.06% sorbic acid, 0.2% benzyl alcohol, 0.37% 1,2-propanediol, 0.37% 1,4-butanediol

C/C=C/C=C/C(=O)O [Sorbic Acid]
Mixed Bacteria Germ Count, 7 days ([1]; 7 days): >10^4 cfu/g
Mixed Bacteria Germ Count, 14 days ([1]; 14 days): >10^3 cfu/g
Mixed Bacteria Germ Count, 21 days ([1]; 21 days): 6.7 × 10^2 cfu/g
Mixed Bacteria Germ Count, 28 days ([1]; 28 days): 2.0 × 10^1 cfu/g
Mixed Fungi Germ Count, 7 days ([2]; 7 days): >10^5 cfu/g
Mixed Fungi Germ Count, 14 days ([2]; 14 days): >10^4 cfu/g
Mixed Fungi Germ Count, 21 days ([2]; 21 days): >10^5 cfu/g
Mixed Fungi Germ Count, 28 days ([2]; 28 days): >10^3 cfu/g
